Test [1] addresses T1, GST-hCAR-LBD (Homo sapiens, UniProt Q14994).
T1 construct: purchased Life Technologies (Carlsbad, Calif.) or Invitrogen (Carlsbad, Calif.)
T1 sequence (Q14994 109-352 limits assumed): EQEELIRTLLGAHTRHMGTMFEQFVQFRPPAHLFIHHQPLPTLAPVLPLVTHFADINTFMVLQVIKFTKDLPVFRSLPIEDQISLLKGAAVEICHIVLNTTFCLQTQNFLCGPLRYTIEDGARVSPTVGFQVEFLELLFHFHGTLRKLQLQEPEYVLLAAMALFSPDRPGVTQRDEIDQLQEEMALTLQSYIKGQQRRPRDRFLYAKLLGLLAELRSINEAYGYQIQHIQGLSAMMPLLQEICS
Briefly: CoAct binding inverse agonist assay (LanthaScreen TR-FRET, fluorescent PGC-1α coactivator recruitment/repression). Type of test: biochemical. Background: In TR-FRET formats the signal depends on donor and acceptor labels being close together.

For test [2], the system named is FXR, GR, LXRα, LXRβ, PPARγ, RXRα, RXRβ, VDR. Kind of test: GeneBLAzer nuclear receptor assays. Type of test: cell-based. The settings on record: 18 μM. How it is done:
FIG. 3B-FIG. 31 show representative data for treatment of GeneBLAzer® cells treated with DMSO (negative control), a predetermined concentration of the indicated nuclear receptor (“NR”) antagonist (positive control; concentration as detailed in Examples), or 18 μM of CINPA1 in the presence or absence the indicated NR agonist (i.e., indicated below treatments). NR-mediated β-lactamase activity was measured as a FRET ratio after 24 h treatment. Data is presented as % Activity, determined by setting the maximum FRET signal obtained for each receptor (in the respective agonist+DMSO wells) to 100%. eGugg=e Guggulsterone, Feno=Fenofibrate, GW9=GW9662, 22HC=22(S)-hydroxycholesterol, 9-cis RA=9-cis retinoic acid.
GeneBLAzer® cells individually expressing the ligand-binding domains of either FXR, GR, LXRα, LXRβ, PPARγ, RXRα, RXRβ, or VDR fused to the GAL4-DNA binding domain (GAL4-DBD) were obtained from Life Technologies (Li, G., et al. (2012) Tox. Appl. Pharm. 258, 268-274; and Yu, D. D., et al. (2013) Bioorg. Med. Chem 21, 4266-4278). Upon activation with the respective agonist, β-lactamase is expressed under the transcriptional control of an Upstream Activator Sequence (UAS), and a FRET-based substrate (CCF2-AM) is used to measure the enzyme activity of β-lactamase.

In test [3] the test system is CAR protein. Briefly: Western blot of CAR protein in human primary hepatocytes. Type of test: cell-based. Particulars: 5 μM CINPA1, 48 h. On the procedure:
Briefly, CAR binding to PGC-1α coactivator peptide was determined by using the LanthaScreen® fluorescent coregulator peptide assay. Fluorescein-labeled PGC-1α peptide (125 nM) was complexed with GST-hCAR-LBD (5 nM) and Tb-anti-GST antibody (5 nM) as described in Experimental Procedures. […] Lysates were prepared, and CAR expression was analyzed by Western blot using CAR monoclonal antibody (Clone N4111, R&D Systems). β-actin was used as a loading control. […] Briefly, U2OS cells were transfected to express FLAG-hCAR1. […] Secondary antibody labeled with Alexa Fluor® 555 dye was used to visualize FLAG-tagged hCAR1 (shown in the second column) using a NikonC 1Si microscope. Nuclei were stained with DAPI (shown in the first column).
On the technique in general: Immunoblotting shows a protein as a band on a membrane.

The term IC50 denotes the concentration that inhibits the measured activity by half. Consider `CCOC(=O)Nc1ccc2c(c1)N(C(=O)CN(CC)CC)c1ccccc1CC2` [CINPA1], for which the “CAR-LBD interaction with PGC-1α coactivator peptide” value in test [1] (dose response, FIG. 6A) was “efficiently inhibits”. Also, the IC50 in test [1] (read-out: IC50 (CAR inverse agonistic activity)) came out at 690 nM. For the same molecule, in test [2] (with NR agonist), the “attenuation of agonist-induced receptor activation” value is on record as “did not attenuate the agonist-induced activation of any of the receptors tested”. Also, in test [2] (without agonist), the “activation of nuclear receptors” value is “did not activate any of the nuclear receptors tested”. The CAR protein level result in test [3] is “had no effect”.

The record behind these values is patent US9908890B2, “Selective inhibitors of constitutive androstane receptor” (ST. JUDE CHILDREN'S RESEARCH HOSPITAL, priority 2014, dated 2018).
